Results on 56 compounds are retold here after publication PMC12040169 (PLOS Biology, 2025).

The nature of the data set: in vitro. To be noted: human, hela cells, % viability.

In the case of `C=CCn1c(N2CCC(C(=O)NC3CC3)CC2)nc2ccccc21` [CBK283924], the viability at 28.5 h, 10 µM came to 86.4%. In the case of `CC(NC(=O)N1CCN(CCc2ccccc2)CC1)c1ccccc1` (centres unmarked) [CBK158935], the viability at 28.5 h, 10 µM was determined as 85.1%. Regarding `N#Cc1cccc(NC(=O)NC[C@H]2C[C@@H]3CC[N@]2C[C@@H]3CN2CCCCC2)c1` [CBK288765], the viability at 28.5 h, 10 µM is 99.5%. For `Sc1nnc(-c2ccncc2)n1CCc1ccccc1` [CBK265819] the value was 108%; for `Clc1ccc(CN2CCC(Oc3nccnc3OCCN3CCOCC3)CC2)cc1` [CBK082918T], 92.5%; for `CCN1CC(C(=O)NCc2ccc(CN3CCCCC3)cc2)CC1=O` (centres unmarked) [CBK281400], 87.3%. Take `CC[C@H](Cn1nc(-c2cccs2)ccc1=O)NC(=O)C(C)C` [CBK284296]: the viability at 28.5 h, 10 µM amounted to 93.7%.

On to `Cc1nc(S(=O)(=O)CCn2cccn2)n(CC2CCCO2)c1C` (centres unmarked) [CBK305141], for which the viability at 28.5 h, 10 µM amounted to 96.6%. To `CC(NC(=O)CSc1nnc(-c2ccc(Cl)cc2)n1-c1ccccc1)c1ccccc1` (centres unmarked) [CBK264993] belongs 87%; to `CN(c1ncc(-c2cc3ccccc3o2)cc1C(=O)NCC(F)(F)F)S(C)(=O)=O` [CBK106479], 114%.

On to `COC(=O)N1CC2(CCCCC2NCc2c[nH]c(C)n2)c2ccccc21` (centres unmarked) [CBK083547T], for which the viability at 28.5 h, 10 µM was determined as 108%. In the case of `Fc1ccc(C2NC(S)=NC3=C2N2CCC3CC2)cc1` (centres unmarked) [CBK288390], the viability at 28.5 h, 10 µM came to 95.4%. On to `COc1ccc(-c2nnc(SCC(=O)Nc3cc(C(C)(C)C)no3)n2C2CCCCC2)cc1OC` [CBK295131], for which the viability at 28.5 h, 10 µM was 105%. For `Cc1ccc(NC(=O)COc2cccnc2)c(C)n1` [CBK200379], the viability at 28.5 h, 10 µM was found to be 102%. To `Cc1cc(C[C@@H]2COC[C@H]2NCc2ccc(C(C)C)cc2)on1` [CBK284884] belongs 107%; to `Nc1ncc(-c2cccc(O)c2)nc1N1CCOCC1` [CBK063376], 100%. To `O=C(CN1CCOCC1)N/N=C/c1ccncc1` [CBK019949] belongs 83.8%; to `O=C(CCc1cccnc1)NC1CCCC1` [CBK200239], 97.9%. To `CCOc1ccc(NC(=O)C(C)O)c(NC(=O)c2ccccc2Cl)c1` (centres unmarked) [CBK269678] belongs 92.7%; to `COc1ccc(C(NC(C)=O)c2nccc3cc(OC)c(OC)cc23)cc1OC` (centres unmarked) [CBK270219], 94.6%; to `CCN(CC)c1ccc(C(=O)Cn2c(=O)n(C(=O)c3cccc(S(C)(=O)=O)c3)c3ccccc32)cc1` [CBK106500], 94.2%.

In the case of `COc1cc(CNC(=O)N(CCc2ccccc2)Cc2ccccc2)cc(OC)c1OC` [CBK155329], the viability at 28.5 h, 10 µM is 110%. As to `Cc1noc(C)c1NC(=O)c1nc2ccccc2[nH]1` [CBK200315], the viability at 28.5 h, 10 µM worked out at 81.5%. To `Cc1cccc(-c2ccc3c(c2)C(=O)N2CC[C@H](NC(=O)c4cnccn4)[C@H]2C(=O)N3)c1C` [CBK289348] belongs 87.2%; to `CC(=O)Nc1c(O)nc(SCC(=O)Nc2ccccc2C(N)=O)[nH]c1=O` [CBK268031], 97.8%. Take `CC(C)NC(=O)NC[C@H]1C[C@@H]2CCN1C[C@@H]2c1cc(-c2cccs2)nn1C` [CBK289103]: the viability at 28.5 h, 10 µM came out at 90%.

Turning to `COc1cc(C(=O)N/C(=C\c2ccc(O)cc2)C(=O)O)cc(OC)c1OC` [CBK262607], the viability at 28.5 h, 10 µM came out at 86.2%. To `CCOc1ccc2cc(C3CC(c4ccc(C)cc4)=NN3C(=O)CCC(=O)O)c(Cl)nc2c1` (centres unmarked) [CBK297508] belongs 87.2%; to `Cc1noc(C)c1S(=O)(=O)Nc1ccsc1C(=O)Nc1ccc(F)cc1` [CBK004604], 86.3%. For `O=C(CCC1CCCC1)N1C[C@@H]2CCCCN(CC3CC3)[C@@H]2C1` [CBK285531] the value was 94%. On to `C=CCn1c2cc(C)sc2c2cnn(CC(=O)NC3CC3)c(=O)c21` [CBK284149], for which the viability at 28.5 h, 10 µM was 86.1%. For the compound `OCCn1ncc2c(NCc3cccnc3-n3cccn3)ncnc21` [CBK305977], the viability at 28.5 h, 10 µM worked out at 90.6%. `CCSc1nnc2c(n1)OC(C)Nc1ccccc1-2` (centres unmarked) [CBK025684]: the viability at 28.5 h, 10 µM was found to be 102%. Regarding `CC(=O)C1=C(C)N(CC2CCCO2)C(=O)C1(NC(=O)c1ccc(C(C)(C)C)cc1)C(F)(F)F` (centres unmarked) [CBK268043], the viability at 28.5 h, 10 µM worked out at 93.2%. To `O=C(Cc1c[nH]c2ccccc12)N1CCc2ccccc21` [CBK200366] belongs 107%; to `Cn1ccnc1C1(O)CC2CCC(C1)N2C(=O)c1c(F)cccc1F` (centres unmarked) [CBK284092], 88.7%; to `CC1CCN(S(=O)(=O)c2ccc(Cl)c(C(=O)Nc3ccc(C(=O)O)cc3)c2)CC1` [CBK265170], 111%.

As for `c1ccc(CC2CCN(CCOc3ccccc3)CC2)cc1` [CBK126433], the viability at 28.5 h, 10 µM turned out to be 107%. For the compound `O=C(Oc1ccc(/C=N/c2ccc(O)c(-c3nc4ccccc4s3)c2)cc1)c1ccccc1Cl` [CBK261241], the viability at 28.5 h, 10 µM came to 89.9%.

Turning to `COc1ccc2nc3cc(Cl)ccc3c(NCCO)c2c1` [CBK011939], the viability at 28.5 h, 10 µM was found to be 43.8%. To `O=C(NCC(O)c1ccccc1)c1ccc(Cl)c(S(=O)(=O)N2CCCCC2)c1` (centres unmarked) [CBK269197] belongs 81%; to `CC1CCC(C(N)=O)CN1c1cc(=O)n2ccccc2n1` (centres unmarked) [CBK304835], 104%.

`Cc1ccc(-c2csc3ncnc(NCCCc4n[nH]c(N)c4C#N)c23)cc1` [CBK297100]: the viability at 28.5 h, 10 µM was determined as 98.1%. For `Cc1ccc(CS(=O)(=O)N(C)C2CCN(C)C(C)C2)c(F)c1` (centres unmarked) [CBK305484] the value was 90.4%; for `COc1ccc(NS(=O)(=O)c2c(Cl)cccc2Cl)c(C(=O)NCc2ccccc2)c1` [CBK113952], 79.8%. To `O=C(O)CN(c1ccc(F)cc1)S(=O)(=O)c1ccc2c(c1)OCCO2` [CBK287096] belongs 84.1%. To `CC(=O)[C@H]1C[C@@H](CC(=O)N2CCN(c3ccc(C(F)(F)F)cc3)CC2)C1(C)C` [CBK091330] belongs 93.6%. For `Cc1cccc2sc(NC(=O)CCCCCNC(N)=O)nc12` [CBK296689], the viability at 28.5 h, 10 µM was found to be 106%. For `CC(C)(O)C1(C)OC(NC2C3CC4CC(C3)CC2C4)=NC1=O` (centres unmarked) [CBK126370] the value was 91.2%; for `COc1cc(C)c2c(N)c(C(C)=O)sc2n1` [CBK115336], 94%; for `COc1ccnc(N2CCCN(CCc3ccc(OC)c(OC)c3)CC2)n1` [CBK084002], 85%.

Regarding `CCCC/C=C/c1cnc(N)c(-c2cccc(N)c2)n1` [CBK063954], the viability at 28.5 h, 10 µM was determined as 102%. Turning to `NC(=O)c1ccc(C(=O)NCC2CN3CCCN2CC3)cc1` (centres unmarked) [CBK304143], the viability at 28.5 h, 10 µM is 114%.

In the case of `O=C(Cn1c(=O)cc(O)c2ccccc21)Nc1cccc(F)c1` [CBK291242], the viability at 28.5 h, 10 µM turned out to be 98.1%. To `CCCc1cnc(N2CCN(CC(=O)Nc3ccc(C(C)=O)cc3)CC2)nc1` [CBK086194] belongs 104%; to `CCOc1ccc(CC(=O)NC[C@H]2CC[C@H](c3cc(C(N)=O)c4ccccc4n3)CC2)cc1` [CBK285899], 92.2%.

The term viability denotes a read-out of living cells in per cent, often relative to untreated cells.
